In PubChem BioAssay (NCI):
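A five-concentration, 48-hour dose response in 96-well plates underlies each endpoint, interpolated linearly between surrounding concentrations. GI50 = concentration required for 50% inhibition of growth. TGI: total growth inhibition.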

What was measured:
Test in all cases: DTP human tumour cell line panel, 48 h
SK-MEL-28 melanoma = system: SK-MEL-28 melanoma
COLO 205 colon = system: COLO 205 colon
HS 578T breast = system: HS 578T breast
CAKI-1 renal = system: CAKI-1 renal
A498 renal = system: A498 renal
K-562 leukemia = system: K-562 leukemia
OVCAR-8 ovarian = system: OVCAR-8 ovarian
HL-60(TB) leukemia = system: HL-60(TB) leukemia
NCI-H460 lung = system: NCI-H460 lung
UACC-62 melanoma = system: UACC-62 melanoma
HOP-62 NSCLC = system: HOP-62 NSCLC
NCI-H226 lung = system: NCI-H226 lung
ACHN renal = system: ACHN renal
DU-145 prostate = system: DU-145 prostate
SF-539 CNS = system: SF-539 CNS
BT-549 breast = system: BT-549 breast
HT29 colon = system: HT29 colon
MDA-MB-435 = system: MDA-MB-435
RXF 393 renal = system: RXF 393 renal
786-0 renal = system: 786-0 renal
MDA-MB-231 breast = system: MDA-MB-231 breast
SN12C renal = system: SN12C renal
NCI/ADR-RES ovarian = system: NCI/ADR-RES ovarian
SW-620 colon = system: SW-620 colon
SF-295 CNS = system: SF-295 CNS
UO-31 renal = system: UO-31 renal
SK-MEL-5 melanoma = system: SK-MEL-5 melanoma
SF-268 CNS = system: SF-268 CNS
HOP-92 NSCLC = system: HOP-92 NSCLC
PC-3 prostate = system: PC-3 prostate
NCI-H522 lung = system: NCI-H522 lung
SNB-19 CNS = system: SNB-19 CNS
SNB-75 CNS = system: SNB-75 CNS
TK-10 renal = system: TK-10 renal
U251 CNS = system: U251 CNS
SK-OV-3 ovarian = system: SK-OV-3 ovarian
MALME-3M melanoma = system: MALME-3M melanoma
RPMI-8226 leukemia = system: RPMI-8226 leukemia
M14 melanoma = system: M14 melanoma
HCC-2998 colon = system: HCC-2998 colon
OVCAR-5 ovarian = system: OVCAR-5 ovarian
UACC-257 melanoma = system: UACC-257 melanoma
EKVX NSCLC = system: EKVX NSCLC
OVCAR-3 ovarian = system: OVCAR-3 ovarian
A549 NSCLC = system: A549 NSCLC
SK-MEL-2 melanoma = system: SK-MEL-2 melanoma

Q: `C1CCC([PH+](C2CCCCC2)C2CCCCC2[PH+](C2CCCCC2)C2CCCCC2)CC1.[Au].[CH-]1CCCCC1CC1CCCC[N-]1` (stereo unspecified) was tested. Which GI50 (SK-MEL-28 melanoma) did it give?
A: The GI50 was 0.433 µM.

Q: And the TGI (SK-MEL-28 melanoma)?
A: The TGI was 1.94 µM.

Q: What about the GI50 (COLO 205 colon) of the same compound?
A: The GI50 was 0.262 µM.

Q: And the TGI (COLO 205 colon)?
A: The TGI was 0.696 µM.

Q: And the GI50 (HS 578T breast)?
A: Its GI50 is 0.276 µM.

Q: And the TGI (HS 578T breast)?
A: The TGI was 1.69 µM.

Q: What about the GI50 (CAKI-1 renal) of the same compound?
A: Its GI50 is 0.791 µM.

Q: What about the TGI (CAKI-1 renal) of the same compound?
A: Its TGI is 2.29 µM.

Q: And the GI50 (A498 renal)?
A: The GI50 was 0.145 µM.

Q: And the TGI (A498 renal)?
A: Its TGI is 0.673 µM.

Q: And the GI50 (K-562 leukemia)?
A: Its GI50 is 0.246 µM.

Q: And the TGI (K-562 leukemia)?
A: The TGI was over 100 µM.

Q: And the GI50 (OVCAR-8 ovarian)?
A: The GI50 was 0.264 µM.

Q: What about the TGI (OVCAR-8 ovarian) of the same compound?
A: The TGI was over 100 µM.

Q: What about the GI50 (HL-60(TB) leukemia) of the same compound?
A: The GI50 was 0.277 µM.

Q: And the TGI (HL-60(TB) leukemia)?
A: The TGI was 0.833 µM.

Q: And the GI50 (NCI-H460 lung)?
A: The GI50 was 0.303 µM.

Q: What about the TGI (NCI-H460 lung) of the same compound?
A: The TGI was 1.09 µM.

Q: And the GI50 (UACC-62 melanoma)?
A: The GI50 was 0.249 µM.

Q: What about the GI50 (HOP-62 NSCLC) of the same compound?
A: Its GI50 is 0.349 µM.

Q: What about the TGI (HOP-62 NSCLC) of the same compound?
A: Its TGI is 2.58 µM.

Q: And the GI50 (NCI-H226 lung)?
A: Its GI50 is 0.561 µM.

Q: And the TGI (NCI-H226 lung)?
A: The TGI was 2.7 µM.

Q: And the GI50 (ACHN renal)?
A: The GI50 was 0.902 µM.

Q: What about the TGI (ACHN renal) of the same compound?
A: Its TGI is 2.1 µM.

Q: What about the GI50 (DU-145 prostate) of the same compound?
A: Its GI50 is 0.363 µM.

Q: And the TGI (DU-145 prostate)?
A: Its TGI is 2.2 µM.

Q: And the GI50 (SF-539 CNS)?
A: Its GI50 is 0.355 µM.

Q: And the TGI (SF-539 CNS)?
A: Its TGI is 1.41 µM.

Q: And the GI50 (BT-549 breast)?
A: Its GI50 is 0.33 µM.

Q: What about the TGI (BT-549 breast) of the same compound?
A: Its TGI is 1.51 µM.

Q: And the GI50 (HT29 colon)?
A: Its GI50 is 0.342 µM.

Q: And the TGI (HT29 colon)?
A: Its TGI is 1.98 µM.

Q: And the GI50 (MDA-MB-435)?
A: Its GI50 is 0.286 µM.

Q: And the TGI (MDA-MB-435)?
A: Its TGI is 1.01 µM.

Q: What about the GI50 (RXF 393 renal) of the same compound?
A: The GI50 was 0.277 µM.

Q: What about the TGI (RXF 393 renal) of the same compound?
A: The TGI was 1.12 µM.

Q: What about the GI50 (786-0 renal) of the same compound?
A: Its GI50 is 0.518 µM.

Q: What about the TGI (786-0 renal) of the same compound?
A: The TGI was 2.02 µM.

Q: And the GI50 (MDA-MB-231 breast)?
A: The GI50 was 0.227 µM.

Q: What about the TGI (MDA-MB-231 breast) of the same compound?
A: Its TGI is 0.689 µM.

Q: What about the GI50 (SN12C renal) of the same compound?
A: The GI50 was 0.285 µM.

Q: What about the TGI (SN12C renal) of the same compound?
A: The TGI was 2.93 µM.

Q: What about the GI50 (NCI/ADR-RES ovarian) of the same compound?
A: The GI50 was 2.86 µM.

Q: What about the TGI (NCI/ADR-RES ovarian) of the same compound?
A: The TGI was over 100 µM.

Q: What about the GI50 (SW-620 colon) of the same compound?
A: The GI50 was 0.371 µM.

Q: And the TGI (SW-620 colon)?
A: Its TGI is 1.41 µM.

Q: And the GI50 (SF-295 CNS)?
A: Its GI50 is 0.305 µM.

Q: And the TGI (SF-295 CNS)?
A: Its TGI is 1.28 µM.

Q: And the GI50 (UO-31 renal)?
A: The GI50 was 1.3 µM.

Q: What about the TGI (UO-31 renal) of the same compound?
A: Its TGI is 2.61 µM.

Q: And the GI50 (SK-MEL-5 melanoma)?
A: The GI50 was 0.288 µM.

Q: What about the TGI (SK-MEL-5 melanoma) of the same compound?
A: The TGI was 0.813 µM.

Q: What about the GI50 (SF-268 CNS) of the same compound?
A: Its GI50 is 0.405 µM.

Q: And the TGI (SF-268 CNS)?
A: Its TGI is 2.11 µM.

Q: What about the GI50 (HOP-92 NSCLC) of the same compound?
A: Its GI50 is 0.212 µM.

Q: What about the TGI (HOP-92 NSCLC) of the same compound?
A: Its TGI is 0.714 µM.

Q: What about the GI50 (PC-3 prostate) of the same compound?
A: The GI50 was 0.283 µM.

Q: And the TGI (PC-3 prostate)?
A: The TGI was 1.93 µM.

Q: And the GI50 (NCI-H522 lung)?
A: Its GI50 is 0.29 µM.

Q: What about the TGI (NCI-H522 lung) of the same compound?
A: Its TGI is 1.56 µM.

Q: What about the GI50 (SNB-19 CNS) of the same compound?
A: The GI50 was 0.327 µM.

Q: What about the TGI (SNB-19 CNS) of the same compound?
A: Its TGI is 1.46 µM.

Q: What about the GI50 (SNB-75 CNS) of the same compound?
A: Its GI50 is 0.23 µM.

Q: What about the TGI (SNB-75 CNS) of the same compound?
A: Its TGI is 0.971 µM.

Q: And the GI50 (TK-10 renal)?
A: The GI50 was 0.516 µM.

Q: And the TGI (TK-10 renal)?
A: The TGI was 2.05 µM.

Q: And the GI50 (U251 CNS)?
A: Its GI50 is 0.199 µM.

Q: What about the TGI (U251 CNS) of the same compound?
A: The TGI was 1.59 µM.

Q: What about the GI50 (SK-OV-3 ovarian) of the same compound?
A: The GI50 was 0.355 µM.

Q: And the TGI (SK-OV-3 ovarian)?
A: Its TGI is 1.36 µM.

Q: What about the GI50 (MALME-3M melanoma) of the same compound?
A: Its GI50 is 0.192 µM.

Q: What about the TGI (MALME-3M melanoma) of the same compound?
A: Its TGI is 0.739 µM.

Q: What about the GI50 (RPMI-8226 leukemia) of the same compound?
A: The GI50 was 0.186 µM.

Q: And the TGI (RPMI-8226 leukemia)?
A: Its TGI is 0.944 µM.

Q: And the GI50 (M14 melanoma)?
A: Its GI50 is 0.297 µM.

Q: And the TGI (M14 melanoma)?
A: Its TGI is 1.27 µM.

Q: What about the GI50 (HCC-2998 colon) of the same compound?
A: The GI50 was 0.404 µM.

Q: What about the TGI (HCC-2998 colon) of the same compound?
A: The TGI was 1.49 µM.

Q: What about the GI50 (OVCAR-5 ovarian) of the same compound?
A: Its GI50 is 0.452 µM.

Q: And the TGI (OVCAR-5 ovarian)?
A: The TGI was 2.01 µM.

Q: And the GI50 (UACC-257 melanoma)?
A: The GI50 was 0.323 µM.

Q: And the TGI (UACC-257 melanoma)?
A: Its TGI is 1.94 µM.

Q: And the GI50 (EKVX NSCLC)?
A: The GI50 was 0.302 µM.

Q: What about the TGI (EKVX NSCLC) of the same compound?
A: Its TGI is 1.97 µM.

Q: And the GI50 (OVCAR-3 ovarian)?
A: The GI50 was 0.318 µM.

Q: What about the TGI (OVCAR-3 ovarian) of the same compound?
A: The TGI was 1.2 µM.

Q: And the GI50 (A549 NSCLC)?
A: The GI50 was 0.241 µM.

Q: And the TGI (A549 NSCLC)?
A: The TGI was 3.03 µM.

Q: What about the GI50 (SK-MEL-2 melanoma) of the same compound?
A: Its GI50 is 0.398 µM.

Q: And the TGI (SK-MEL-2 melanoma)?
A: The TGI was 1.38 µM.
